# Laboratory results: patent US10738041B2, “Ferroportin inhibitors” (Vifor (International) AG, priority 2015, dated 2020)
# Molecular target: T1, ferroportin (Fpn) (Mus musculus, UniProt Q9JHI9)
# T1 construct: host or cells: J774 mouse macrophage cell line, Fe(III)-NTA induced
# T1 sequence (Q9JHI9 1-570): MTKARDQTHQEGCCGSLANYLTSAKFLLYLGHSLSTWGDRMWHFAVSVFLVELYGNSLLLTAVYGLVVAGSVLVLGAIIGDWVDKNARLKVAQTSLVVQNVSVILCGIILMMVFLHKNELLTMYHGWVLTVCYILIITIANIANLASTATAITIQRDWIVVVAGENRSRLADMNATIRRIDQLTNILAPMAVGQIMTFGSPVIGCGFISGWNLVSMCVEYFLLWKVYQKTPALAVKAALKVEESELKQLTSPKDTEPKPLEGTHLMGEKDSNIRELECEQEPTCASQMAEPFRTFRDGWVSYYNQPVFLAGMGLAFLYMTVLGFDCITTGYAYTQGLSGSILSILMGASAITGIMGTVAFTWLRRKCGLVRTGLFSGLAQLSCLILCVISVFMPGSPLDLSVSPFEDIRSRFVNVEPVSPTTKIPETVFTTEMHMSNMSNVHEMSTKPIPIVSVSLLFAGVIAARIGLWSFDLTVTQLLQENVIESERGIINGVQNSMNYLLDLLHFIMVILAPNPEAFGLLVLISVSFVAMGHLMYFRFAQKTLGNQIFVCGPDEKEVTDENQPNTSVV
# Assay: Hepcidin Internalization Assay (J774)
# Assay type: cell-based
# Details: average of multiple measurements; inhibition of TMR-hepcidin (25 nM) internalization into J774 cells; read-out: J774 IC50
# Text: This cellular assay allows quantification of the binding of hepcidin to ferroportin (Fpn) through microscopic detection of internalization of a fluorescently labeled hepcidin into J774 cells. […] Binding of hepcidin to Fpn triggers internalization and degradation of both hepcidin and Fpn. However, the TMR (6-carboxytetramethylrhodamine) fluorophore attached to hepcidin remains associated with the cell after degradation of the hepcidin peptide backbone. Therefore, microscopic detection of ceH associated TMR fluorescence is a measure of hepcidin binding to Fpn and internalization of hepcidin and Fpn. If TMR-hepcidin is prevented from binding to Fpn, cellular TMR fluorescence remains low (Dürrenberger et al, 2013). The effect of small molecular weight Fpn inhibitor compounds in this assay was evaluated in vitro as described below.
# J774 cells, harvested from ca. 80% confluent cultures, were plated at 8×10^5 cells/ml in complete medium (DMEM, 10% FBS, 1% Penicillin-Streptomycin) containing 200 μM Fe(III)NTA (nitrilotriacetic acid), 100 μl per well of 96 well MicroClear plates (Greiner; Cat. 655090) and grown at 37° C. with 5% CO2. After overnight incubation, cells were washed 3 times with pre-warmed DMEM w/o phenol red, 30 μl/well of DMEM w/o phenol red was added after the final wash and 10 μl/well of dilution series of test compounds were added in triplicates. […] Cells were incubated in a total volume of 50 μl at 37° C. with 5% CO2 for 2 hours, then Hoechst 33342 dye was added to a final concentration of 0.5 μg/ml to stain nuclei and further incubated for 10 min. at 37° C. with 5% CO2. Cells were washed 3 times with PBS and fixed in 100 μl of 4% paraformaldehyde in PBS for 15 min. at room temperature. After removal of the paraformaldehyde solution, cells were washed 3 times with PBS leaving 100 μl per well and the plates were sealed with foil plate seal. TMR (530-550 nm excitation/575-625 nm emission/400 ms exposure time) and Hoechst 33342 (360-370 nm excitation/420-460 nm emission/10 ms exposure time) fluorescence images were acquired using a ScanR plate imager (Olympus) with a 20× high NA objective. Four pictures were acquired per well and fluorescence channel covering ca. 1500 cells per well. The acquired image data was analysed with the ScanR image analysis software. Image analysis included detection of nuclei (Hoechst 33342 fluorescence), identification of cell-associated regions, application of a virtual channel and thresholding for rolling-ball-type background reduction, followed by application of the Sum(Mean) algorithm to measure the TMR fluorescence associated with cells as a quantitative measure for internalized TMR-hepcidin. IC50 values were calculated with the Sum(Mean) raw data using “log(inhibitor) vs. response” curve fitting of Prism 5 software (GraphPad Software Inc., version 5.02).
row,SMILES,IC50
1,O=C(NCc1ccccc1)c1csc(CCNCc2nccs2)n1 [Example 3],16600 nM
2,CC(=O)N(CCc1nc(C(=O)NCc2ccccc2)cs1)Cc1nccn1C [Example 4],15400 nM
3,O=C(NCc1ccccc1)c1csc(CCNCc2n[nH]c3ccccc23)n1 [Example 5],10400 nM
4,O=C(NCc1ccccc1)c1csc(CCNC(=O)c2nc3ccccc3[nH]2)n1 [Example 7],14200 nM
5,O=C(NCc1ccccc1)c1csc(CCNC(=O)c2ncc[nH]2)n1 [Example 8],42900 nM
6,O=C(c1csc(CCNCc2nc3ccccc3[nH]2)n1)N1CCOCC1 [Example 18],8700 nM
7,O=C(NCc1ccccn1)c1cnn(CCNCCc2nc3ccccc3[nH]2)c1 [Example 109],76 nM
8,O=C(Cc1nc2ccccc2[nH]1)NCCc1nc(C(=O)NCc2ncccc2F)cs1 [Example 113],> 25000 nM
9,O=C(NCc1ncccc1F)c1csc(CCNCc2nc3ccc(F)cc3[nH]2)n1 [Example 114],118 nM
10,O=C(NCc1ncccc1F)c1csc(CCNCc2nc3ccccc3o2)n1 [Example 115],> 25000 nM
11,O=C(NCc1ncc(F)cc1F)c1csc(CCNCCc2nc3cc(F)ccc3[nH]2)n1 [Example 123],170 nM
12,O=C(NCc1ncccn1)c1csc(CCNCCc2nc3ccccc3[nH]2)n1 [Example 129],353 nM
13,O=C(NC1CCc2cccnc21)c1cnn(CCNCCc2nc3ccccc3[nH]2)c1 (stereo not drawn) [Example 131],90 nM
14,Cc1nn(CCNCc2nc3ccccc3[nH]2)c(C)c1C(=O)NCc1ncccc1F [Example 142],21600 nM
15,O=C(NCc1ncccc1F)c1cnn(CCNCc2nc3ccccc3[nH]2)c1 [Example 145],385 nM
16,O=C(NCc1ncccc1F)c1csc(CCN(CCc2nc3ccccc3[nH]2)CC2CC2)n1 [Example 148],2080 nM
17,Cc1cnc(CNC(=O)c2csc(CCNCCc3nc4ccccc4[nH]3)n2)nc1 [Example 155],347 nM
18,O=C(NCc1ncccc1F)c1cn(CCNCc2nc3ccccc3[nH]2)nc1C(F)(F)F [Example 156],2460 nM
19,CCCCN(CCc1nc2ccccc2[nH]1)CCc1nc(C(=O)NCc2ncccc2F)cs1 [Example 157],717 nM

row,SMILES,IC50
1,O=C(NCc1ccccn1)c1nc(CCNCc2nc3ccccc3[nH]2)sc1Cl [Example 160],256 nM
2,O=C(NCc1ncccc1F)c1cn(CCNCCc2nc3ccccc3[nH]2)nc1C(F)(F)F [Example 162],297 nM
3,NCCCN(CCc1nc2ccccc2[nH]1)CCc1nc(C(=O)NCc2ncccc2F)cs1 [Example 163],828 nM
4,Cc1sc(CCNCc2nc3ccccc3[nH]2)nc1C(=O)NCc1ncccc1F [Example 164],343 nM
5,Cc1sc(CCNCCc2nc3ccccc3[nH]2)nc1C(=O)NCc1ncccc1F [Example 165],100 nM
6,O=C(NCc1ncccc1Cl)c1coc(CCNCCc2nc3ccccc3[nH]2)n1 [Example 173],6 nM
7,Cc1ccc(CNC(=O)c2csc(CCNCCc3nc4ccccc4[nH]3)n2)nn1 [Example 174],141 nM
8,O=C(NCc1ncccn1)c1nc(CCNCc2nc3ccccc3[nH]2)sc1Cl [Example 175],1020 nM
9,O=C(NCc1ncccc1F)c1nc(CCNCc2nc3ccccc3[nH]2)sc1C(F)(F)F [Example 176],957 nM
10,Cc1cnc(CNC(=O)c2nc(CCNCCc3nc4ccccc4[nH]3)sc2Cl)nc1 [Example 182],989 nM
11,O=C(NCc1cccnn1)c1nc(CCNCCc2nc3ccccc3[nH]2)sc1Cl [Example 183],131 nM
12,O=C(NCc1ccccn1)c1nc(CCNCCc2nc3ccccc3[nH]2)sc1Cl [Example 184],63 nM
13,O=C(NCc1ncccc1F)c1nc(CCNCCc2nc3ccccc3[nH]2)sc1C(F)(F)F [Example 186],300 nM
14,Cc1sc(CCNCCc2nc3ccccc3[nH]2)nc1C(=O)NCc1ncccn1 [Example 188],1160 nM
15,O=C(NCc1ccccn1)c1nc(CCN2CCc3nc4ccccc4n3C2)sc1Cl [Example 189],60 nM
16,O=C(NC1CCc2cccnc21)c1cnn(C2CN(CCc3nc4ccccc4[nH]3)C2)c1 (stereo not drawn) [Example 191],330 nM
17,O=C(NCc1ncccc1Cl)c1csc(C2CN(CCc3nc4ccccc4[nH]3)C2)n1 [Example 195],210 nM
18,O=C(NCc1ncccc1F)c1cnn(C2CCN(CCc3nc4ccccc4[nH]3)CC2)c1 [Example 198],27000 nM
19,CC(C)(CNCCc1nc(C(=O)NCc2ncccc2F)cs1)c1nc2ccccc2[nH]1 [Example 199],780 nM

row,SMILES,IC50
1,O=C(NCc1ncccc1F)c1nc(CNCCc2nc3ccccc3[nH]2)cs1 [Example 205],370 nM
2,O=C(NCc1ncccc1F)c1coc(CNCCc2nc3ccccc3[nH]2)n1 [Example 206],180 nM
3,O=C(NCc1ncccc1F)c1nc(C2CN(CCc3nc4ccccc4[nH]3)C2)sc1Cl [Example 209],379 nM
4,O=C(NCc1ncccc1F)c1nc(C2(O)CN(CCc3nc4ccccc4[nH]3)C2)sc1Cl [Example 211],747 nM
5,Cn1nc(CNCCc2nc3ccccc3[nH]2)cc1C(=O)NCc1ncccc1F [Example 220],290 nM
6,COc1cccc2[nH]c(CCNCCc3nc(C(=O)NCc4ncccc4F)co3)nc12 [Example 227],130 nM
7,CC(C)(Cc1nc(C(=O)NCc2ncccc2F)cs1)NCc1nc2ccccc2[nH]1 [Example 231],5200 nM
8,O=C(NCc1ccccn1)c1coc(CCNCCc2nc3c(F)cccc3[nH]2)n1 [Example 236],150 nM
9,O=C(NCc1cccnn1)c1coc(C2CN(CCc3nc4ccccc4[nH]3)C2)n1 [Example 244],90 nM
10,O=C(NCc1ncccc1F)c1coc(CCNCCc2nc3c(F)ccc(Cl)c3[nH]2)n1 [Example 247],82 nM
11,O=C(NCc1ncccc1F)c1coc(CCNCCc2nc3c(F)ccc(F)c3[nH]2)n1 [Example 251],62 nM
12,O=C(NCc1ncccc1F)c1coc(CCNCc2nc3c(F)cccc3[nH]2)n1 [Example 253],226 nM
13,O=C(NCc1ncccc1F)c1coc(CCNCCc2nc3c(C(F)(F)F)cccc3[nH]2)n1 [Example 256],81 nM
14,O=C(NCc1ncccc1F)c1coc(CCNCCc2nc3c(F)c(F)ccc3[nH]2)n1 [Example 257],35 nM
15,O=C(NCc1ccccn1)c1coc(C2CN(CCc3nc4c(F)cccc4[nH]3)C2)n1 [Example 258],152 nM
16,O=C(NCc1ncccc1F)c1coc(C2CN(CCc3nc4c(C(F)(F)F)cccc4[nH]3)C2)n1 [Example 273],228 nM
17,O=C(NCc1ncccc1F)c1csc(CCNCc2nc3c(F)cccc3[nH]2)n1 [Example 274],145 nM
18,NC(=O)c1csc(CCNCc2nc3ccccc3[nH]2)n1 [compound 23],15800 nM
19,O=C(NCc1ncccc1F)[C@@H]1CCN(CCNCc2nc3ccccc3[nH]2)C1 [compound 202],5000 nM
